Values quoted from earlier work as cited in PubChem BioAssay AID1259409 (Chemical Carcinogenesis Research Information System (CCRIS), 2018).

System: rodent chemically induced tumor inhibition, incidence and multiplicity
Assay: CCRIS tumor inhibitor studies
Settings: Carcinogen: L-AZASERINE, 115-02-6, Dose [Inhibitor]: 1 MMOL/KG DIET DAILY FOR 91 D FOLLOWED BY 0.5 MMOL/KG DIET DAILY FOR 246 D DURING A 358 D PERIOD STARTING 1 WK AFTER COM, Route [Inhibitor]: ORAL, Species: RAT, Promoter: NONE USED

CC1=C(/C=C/C(C)=C/C=C/C(C)=C/C(=O)Nc2ccc(C(=O)O)cc2)C(C)(C)CCC1
tumour outcome (control, treated, inhibition, significance) (Strain/Sex: WISTAR-LEWIS/FEMALE, Target Tissue: Type of Lesion: PANCREAS: ADENOMA, Dose [Carcinogen]: 10 MG/KG BW 1/WK FOR 15 WK): 35%, 38%, -9%, not significant | tumour outcome (control, treated, inhibition, significance) (Strain/Sex: WISTAR-LEWIS/FEMALE, Target Tissue: Type of Lesion: PANCREAS: CARCINOMA IN SITU, Dose [Carcinogen]: 10 MG/KG BW 1/WK FOR 15 WK): 48%, 8%, 83%, not significant | tumour outcome (control, treated, inhibition, significance) (Strain/Sex: WISTAR-LEWIS/FEMALE, Target Tissue: Type of Lesion: PANCREAS: CARCINOMA, Dose [Carcinogen]: 10 MG/KG BW 1/WK FOR 15 WK): 4%, 0%, 100%, not significant | tumour outcome (control, treated, inhibition, significance) (Strain/Sex: WISTAR-LEWIS/FEMALE, Target Tissue: Type of Lesion: PANCREAS: NEOPLASM, Dose [Carcinogen]: 10 MG/KG BW 1/WK FOR 15 WK STARTING 15 WK): 87%, 46%, 47%, p<0.05 | tumour outcome (control, treated, inhibition, significance) (Strain/Sex: WISTAR-LEWIS/MALE, Target Tissue: Type of Lesion: PANCREAS: ADENOMA, Dose [Carcinogen]: 10 MG/KG BW 1/WK FOR 15 WK): 29%, 16%, 45%, not significant | tumour outcome (control, treated, inhibition, significance) (Strain/Sex: WISTAR-LEWIS/MALE, Target Tissue: Type of Lesion: PANCREAS: CARCINOMA IN SITU, Dose [Carcinogen]: 10 MG/KG BW 1/WK FOR 15 WK): 58%, 64%, -10%, not significant | tumour outcome (control, treated, inhibition, significance) (Strain/Sex: WISTAR-LEWIS/MALE, Target Tissue: Type of Lesion: PANCREAS: CARCINOMA, Dose [Carcinogen]: 10 MG/KG BW 1/WK FOR 15 WK): 8%, 16%, -100%, not significant | tumour outcome (control, treated, inhibition, significance) (Strain/Sex: WISTAR-LEWIS/MALE, Target Tissue: Type of Lesion: PANCREAS: NEOPLASM, Dose [Carcinogen]: 10 MG/KG BW 1/WK FOR 15 WK): 95%, 96%, -1%, not significant
